According to patent US10646427B2, “Cosmetic compositions comprising spiculisporic acid and an ester of fatty acid and(poly)glycerol optionally polyoxyalkylenated” (L'OREAL, priority 2013, dated 2020):

Test system: reconstructed Episkin J13 skin model
Experiment: Episkin Peeling test (detachment of corneocytes measured by dosage of proteins)
Assay type: cell-based
Details: for desquamating efficacy (detachment of corneocytes) compared to 30% glycolic acid reference: 10 min treatment
Protocol: The Episkin Peeling test measures the detachment of corneocytes of the reconstructed Episkin J13 skin model. At this stage of maturation, the epidermis has a well differentiated stratum corneum (SC).
The sample is treated for 10 minutes with the control or test solution. The sample is taken and placed on the wall of a tube; its surface is then washed with a swab. The washing solution is filtered to preserve only the detached corneocytes. Their presence is measured by a dosage of proteins with the BCA Kit (PIERCE no. 23225).
The reference molecule is glycolic acid (AG). This is one of the compounds used in peeling at rates of occasionally up to 70%. It is applied for short times on the order of a few minutes and then neutralised.
The rate of 30% was used because it allows for good response dynamics with a short application time of 10 min.
Three Episkin batches are used for each study (n=3 per batch and per condition).
The evaluation of the raw materials (MP) is carried out by comparing the results of the MP to those obtained with 30% AG. The MP is effective if it reaches the level of the reference.
They were immersed in water. Spiculisporic acid was salified with potassium (KOH).
The dosage of free proteins, measured by DO, is to proportional to the quantity of corneocytes extracted, and thus to desquamation.

For `CCCCCCCCCCC(C(=O)O)C1(C(=O)O)CCC(=O)O1` (stereo not shown) [Spiculisporic acid K+, 4,5-dicarboxy-4-pentadecanolide], the “desquamating efficacy (detachment of corneocytes) compared to 30% glycolic acid reference” value (1% in water, salified with KOH) was “no effect on the detachment of corneocytes” and the “desquamating efficacy (detachment of corneocytes) compared to 30% glycolic acid reference” value (1% in water, salified with KOH, listed as spiculisporic acid) was “absence of desquamation”.

In the case of `O=C(O)CC(O)(CC(=O)O)C(=O)O` [citric acid, Citric acid, reference compound], the “desquamating efficacy (detachment of corneocytes) compared to 30% glycolic acid reference” value (10% in water) is reported as “does not reach the effect of the reference” and the “desquamating efficacy (detachment of corneocytes) compared to 30% glycolic acid reference” value (30% in water) is reported as “reaches the efficacy level of the reference”.

`O=C(O)CO` [AG, glycolic acid, reference compound] was tested, and the “detachment of corneocytes measured by dosage of proteins (FIG. 1)” value (10%, 30% and 50%) was “dose-dependent effect”.

In the case of `CCCCCCCC(=O)OCC(O)CO` (stereo not shown) [GMCY, Glyceryl caprylate], the “desquamating efficacy (detachment of corneocytes) compared to 30% glycolic acid reference” value (5% in water) is reported as “desquamating efficacy (almost) reaching that of the glycolic acid reference at 30%” and the “desquamating efficacy (detachment of corneocytes) compared to 30% glycolic acid reference” value (5% in water, listed as glyceryl caprylate) is reported as “positive, but not significant, desquamation relative to the positive control”.
